Source: ChEMBL document CHEMBL1201862, “PubChem BioAssay data set” (2004)
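Each compound was tested at five concentrations against cells in 96-well plates for 48 hours. GI50 = concentration required for 50% inhibition of growth.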 Active and inactive are the calls of the source. No stated cut-off is given here; in the data, active = GI50 up to about 1.1 µM and inactive = higher.

Legend:
Experiment in all cases: NCI tumour cell line growth inhibition, 48 h
A498 = tested on: A498
HCT-116 = tested on: HCT-116
CCRF-CEM = tested on: CCRF-CEM
A549 = tested on: A549
SK-MEL-5 = tested on: SK-MEL-5
RXF 393 = tested on: RXF 393
NCI-H226 = tested on: NCI-H226
KM12 = tested on: KM12
Malme-3M = tested on: Malme-3M
NCI-H522 = tested on: NCI-H522
SNB-75 = tested on: SNB-75
OVCAR-8 = tested on: OVCAR-8
MOLT-4 = tested on: MOLT-4
U-251 = tested on: U-251
HOP-62 = tested on: HOP-62
ACHN = tested on: ACHN
SF-295 = tested on: SF-295

Compound | GI50 (A498) | GI50 (HCT-116) | GI50 (CCRF-CEM) | GI50 (A549) | GI50 (SK-MEL-5) | GI50 (RXF 393) | GI50 (NCI-H226) | GI50 (KM12) | GI50 (Malme-3M) | GI50 (NCI-H522) | GI50 (SNB-75) | GI50 (OVCAR-8) | GI50 (MOLT-4) | GI50 (U-251) | GI50 (HOP-62) | GI50 (ACHN) | GI50 (SF-295)
COC(=O)c1c(-c2cc(OC)c(OC)c(OC)c2)oc2ccccc2c1=O | > 100 µM (inactive) | 48.3 µM (inactive) | 36.7 µM (inactive) | 83.8 µM (inactive) | 59.7 µM (inactive) | 53.6 µM (inactive) | > 100 µM (inactive) | > 100 µM (inactive) | > 100 µM (inactive) | 94 µM (inactive) | 58.7 µM (inactive) | > 100 µM (inactive) | 70.1 µM (inactive) | 87.3 µM (inactive) | > 100 µM (inactive) | > 100 µM (inactive) | > 100 µM (inactive)
CN(C)CCNC(=O)Cc1ccccc1Nc1c(Cl)cccc1Cl | – | 17.2 µM (inactive) | 14.3 µM (inactive) | 18 µM (inactive) | 15 µM (inactive) | 15.3 µM (inactive) | 17.9 µM (inactive) | 18.5 µM (inactive) | – | – | 12.7 µM (inactive) | 18.9 µM (inactive) | 16 µM (inactive) | 10.9 µM (inactive) | 15 µM (inactive) | 19 µM (inactive) | 16 µM (inactive)
CC(Oc1ccc2cc(C(=O)c3ccccc3)c(=O)oc2c1)C(=O)O (stereo not given) | > 100 µM (inactive) | > 100 µM (inactive) | > 100 µM (inactive) | > 100 µM (inactive) | > 100 µM (inactive) | > 100 µM (inactive) | > 100 µM (inactive) | > 100 µM (inactive) | > 100 µM (inactive) | > 100 µM (inactive) | > 100 µM (inactive) | > 100 µM (inactive) | > 100 µM (inactive) | > 100 µM (inactive) | > 100 µM (inactive) | > 100 µM (inactive) | > 100 µM (inactive)
c1ccc(Nc2nnc(CSc3nc(-c4ccccc4)c(-c4ccccc4)[nH]3)s2)cc1 | 26.5 µM (inactive) | 17.2 µM (inactive) | 15.5 µM (inactive) | 28.4 µM (inactive) | 15.2 µM (inactive) | – | 14.9 µM (inactive) | 21.1 µM (inactive) | 19.2 µM (inactive) | 17.2 µM (inactive) | 44.4 µM (inactive) | 23 µM (inactive) | 10.1 µM (inactive) | 13.7 µM (inactive) | 21.1 µM (inactive) | 26.3 µM (inactive) | 18.6 µM (inactive)
CCCCCCCCCCCCCCCC(=O)OCCOCCOCCOCCOCCOC(=O)CCCCCCCCCCCCCCC | > 100 µM (inactive) | > 100 µM (inactive) | > 100 µM (inactive) | > 100 µM (inactive) | > 100 µM (inactive) | > 100 µM (inactive) | > 100 µM (inactive) | > 100 µM (inactive) | > 100 µM (inactive) | > 100 µM (inactive) | > 10 µM (inactive) | > 100 µM (inactive) | > 100 µM (inactive) | > 100 µM (inactive) | > 100 µM (inactive) | > 100 µM (inactive) | > 100 µM (inactive)
C[C@@H]1C(=O)CC2C(C)(C)CCC[C@]2(C)[C@@]12CC[C@]1(C=COC1)O2 (stereo not given in full) | – | 30.2 µM (inactive) | 23.4 µM (inactive) | 36.1 µM (inactive) | – | 16 µM (inactive) | 91 µM (inactive) | 39.4 µM (inactive) | 27.8 µM (inactive) | 19.2 µM (inactive) | – | 27.9 µM (inactive) | 16 µM (inactive) | – | 50.8 µM (inactive) | 32.5 µM (inactive) | 36.6 µM (inactive)
CCOC(=O)N1C2C=C(C)C(ON2C(=O)c2ccccc2)C2C(C)C(=O)N21 (stereo not given) | > 100 µM (inactive) | > 100 µM (inactive) | > 100 µM (inactive) | > 100 µM (inactive) | > 100 µM (inactive) | > 100 µM (inactive) | > 100 µM (inactive) | > 100 µM (inactive) | > 100 µM (inactive) | – | 23.6 µM (inactive) | > 100 µM (inactive) | > 100 µM (inactive) | > 100 µM (inactive) | > 100 µM (inactive) | > 100 µM (inactive) | > 100 µM (inactive)
COC(=O)c1c[nH]cc1CCc1c[nH]cc1C(=O)OC | 48.2 µM (inactive) | > 100 µM (inactive) | > 100 µM (inactive) | > 100 µM (inactive) | – | 27.2 µM (inactive) | > 100 µM (inactive) | > 100 µM (inactive) | > 100 µM (inactive) | 58.1 µM (inactive) | – | > 100 µM (inactive) | > 100 µM (inactive) | > 100 µM (inactive) | > 100 µM (inactive) | > 100 µM (inactive) | > 100 µM (inactive)
O=c1c(O)c(-c2ccccc2)n(O)c2ccc(Cl)cc12 | 29.2 µM (inactive) | 10.9 µM (inactive) | 23.9 µM (inactive) | 29.6 µM (inactive) | 17.5 µM (inactive) | 23.1 µM (inactive) | 19.1 µM (inactive) | 31.6 µM (inactive) | 60.1 µM (inactive) | 21.4 µM (inactive) | 29 µM (inactive) | 21.3 µM (inactive) | 32.7 µM (inactive) | 25.8 µM (inactive) | 27.9 µM (inactive) | 30.6 µM (inactive) | 29.4 µM (inactive)
CC(C(=O)n1nnc2ccccc21)N(c1ccccc1)c1ccccc1 (stereo not given) | – | 89.5 µM (inactive) | 83.4 µM (inactive) | 56.9 µM (inactive) | 42.9 µM (inactive) | > 100 µM (inactive) | 87.7 µM (inactive) | – | 84.7 µM (inactive) | 45.5 µM (inactive) | 69.5 µM (inactive) | > 100 µM (inactive) | 99.5 µM (inactive) | 43.5 µM (inactive) | > 100 µM (inactive) | > 100 µM (inactive) | > 100 µM (inactive)
CC(C)(C)C#C[P+](c1ccccc1)(c1ccccc1)c1ccccc1 | 0.23 µM (active) | 0.177 µM (active) | 0.108 µM (active) | 0.253 µM (active) | 0.187 µM (active) | 0.329 µM (active) | 0.33 µM (active) | 0.238 µM (active) | 0.349 µM (active) | 0.15 µM (active) | 0.0348 µM (active) | 0.185 µM (active) | 0.197 µM (active) | 0.119 µM (active) | 0.277 µM (active) | 1.39 µM (inactive) | 0.292 µM (active)
CC1=C(C(=O)Nc2ccc([N+](=O)[O-])cc2)C(c2ccc3c(c2)OCO3)C(C(=O)Nc2ccc([N+](=O)[O-])cc2)=C(C)N1 | 14.2 µM (inactive) | 10.1 µM (inactive) | – | 24.2 µM (inactive) | – | 25.3 µM (inactive) | 14.7 µM (inactive) | 3.8 µM (inactive) | 23.9 µM (inactive) | 24.1 µM (inactive) | 6.18 µM (inactive) | 3.16 µM (inactive) | 0.321 µM (active) | 30.1 µM (inactive) | 37.6 µM (inactive) | 10.1 µM (inactive) | 8.34 µM (inactive)
O=c1[nH]c(-c2ccccc2)nc2cc(Cl)ccc12 | > 100 µM (inactive) | > 100 µM (inactive) | > 100 µM (inactive) | > 100 µM (inactive) | > 100 µM (inactive) | > 100 µM (inactive) | 73.3 µM (inactive) | > 100 µM (inactive) | > 100 µM (inactive) | – | > 100 µM (inactive) | > 100 µM (inactive) | > 100 µM (inactive) | > 100 µM (inactive) | > 100 µM (inactive) | > 100 µM (inactive) | > 100 µM (inactive)
CC(C)NCC(O)COC(=O)c1cccs1 (stereo not given) | – | – | > 100 µM (inactive) | > 100 µM (inactive) | > 100 µM (inactive) | > 100 µM (inactive) | – | > 100 µM (inactive) | > 100 µM (inactive) | > 100 µM (inactive) | 67.8 µM (inactive) | > 100 µM (inactive) | > 100 µM (inactive) | – | > 100 µM (inactive) | > 100 µM (inactive) | > 10 µM (inactive)
Cc1cc(=O)oc2cc(OCCCOc3ccc4c(C)cc(=O)oc4c3)ccc12 | > 100 µM (inactive) | > 100 µM (inactive) | > 100 µM (inactive) | > 100 µM (inactive) | > 100 µM (inactive) | > 100 µM (inactive) | > 100 µM (inactive) | – | > 100 µM (inactive) | – | 38.6 µM (inactive) | > 100 µM (inactive) | > 100 µM (inactive) | > 100 µM (inactive) | 63.8 µM (inactive) | > 100 µM (inactive) | > 100 µM (inactive)
CC1CC(C)C(C(O)CC2CC(=O)N(c3ccccc3)C(=O)C2)C(O)C1 (stereo not given) | > 100 µM (inactive) | > 100 µM (inactive) | > 100 µM (inactive) | > 100 µM (inactive) | – | > 100 µM (inactive) | > 100 µM (inactive) | > 100 µM (inactive) | > 100 µM (inactive) | > 100 µM (inactive) | > 100 µM (inactive) | > 100 µM (inactive) | > 100 µM (inactive) | > 100 µM (inactive) | > 100 µM (inactive) | > 100 µM (inactive) | > 100 µM (inactive)
O=C(CCn1[nH]c(=O)c(Cl)c(Cl)c1=O)NNC(=O)C[n+]1ccccc1 | > 100 µM (inactive) | – | > 100 µM (inactive) | > 100 µM (inactive) | > 100 µM (inactive) | > 100 µM (inactive) | > 100 µM (inactive) | > 100 µM (inactive) | > 100 µM (inactive) | > 100 µM (inactive) | 52.4 µM (inactive) | > 100 µM (inactive) | > 100 µM (inactive) | – | > 100 µM (inactive) | > 100 µM (inactive) | > 100 µM (inactive)
O=C(O)CN(c1ccccc1)S(=O)(=O)c1ccc(NC(=O)c2ccccc2)cc1 | > 100 µM (inactive) | – | > 100 µM (inactive) | > 100 µM (inactive) | – | > 100 µM (inactive) | – | – | > 100 µM (inactive) | > 100 µM (inactive) | > 100 µM (inactive) | > 100 µM (inactive) | > 100 µM (inactive) | > 100 µM (inactive) | – | > 100 µM (inactive) | –
